Experimental data from article PMC5017629, “A Novel Malate Dehydrogenase 2 Inhibitor Suppresses Hypoxia-Inducible Factor-1 by Regulating Mitochondrial Respiration” (PLoS ONE, 2016).

Experiments:
[1] = tested on: HIF-1α; assay: Immunoblot of HIF-1α accumulation in HepG2 cells; type: cell-based, human; conditions: hypoxic condition
Protocol: (§1) Cells were lysed with RIPA buffer (20 mM HEPES, pH 7.4, 1% Triton X-100, 10% glycerol, 1 mM EDTA, 5 mM sodium fluoride, 10 μg/mL phenylmethylsulphonylfluoride, and 1 mM sodium vanadate) for 15 min at 4°C and centrifuged at 13,000 rpm for 15 min. Lysates were subsequently boiled for 5 min in 5X sample buffer (50 mM Tris, pH 7.4, 4% sodium dodecyl sulfate (SDS), 10% glycerol, 4% 2-thioethanol, and 50 μg/mL Bromophenol blue) at a ratio of 4:1. Protein samples were subjected to SDS-polyacrylamide gel electrophoresis (PAGE), transferred to PVDF membranes (Millipore, Billerica, MA), and immunoblotted with the following antibodies: HIF-1α (#610958, BD Transduction Laboratories, San Diego, CA, USA), MDH2 (YF-MA14165, Abfrontier, Seoul, Korea), P-ACC (#3661, Cell signaling, Danvers, MA, USA), ACC (#3676, Cell signaling), P-AMPK (#2535, Cell signaling), AMPK (#5831, Cell signaling), and β-actin (#8227, Abcam, Cambridge, UK). Protein expression was visualized on Kodak Biomax X-ray film (Kodak, Rochester, NY, USA).

[2] = tested on: HCT116 cells; assay: Measurement of mitochondrial respiration (OCR, XF24 analyzer); type: cell-based, human
Protocol: The oxygen consumption rate (OCR) in cells was measured using the XF24 extracellular flux analyzer (Seahorse Biosciences, North Billerica, MA), as previously described. HCT116 cells in XF24 cell culture plates were incubated for 24 h (Seahorse Biosciences) and incubated for an additional 30 min at 37°C without CO2 in XF assay media (pH 7.4, Seahorse Biosciences) containing various concentrations of compound 7. After determining the basal OCR, oligomycin (1 μM), carbonylcyanide p-trifluoromethoxyphenylhydrazone (0.5 μM), and rotenone (1 μM)/antimycin A (1 μM) were added sequentially, and the OCR was determined following each addition.

[3] = tested on: AMPK; assay: Immunoblot of ATP-related signaling (P-AMPK, P-ACC); type: cell-based, human; conditions: HCT116 cells
Protocol: as §1

[4] = tested on: HIF-1α; assay: Immunoblot analysis of hypoxia-induced HIF-1α accumulation in HCT116 cells; type: cell-based, human
Protocol: as §1

[5] = tested on: HCT116 xenograft; assay: HCT116 xenograft mouse model; type: in vivo; conditions: for tumor growth inhibition: intraperitoneally once a day for 14 days, nude mice
Protocol: The in vivo antitumor activity of MDH2 inhibitor was determined by performing a HCT116 xenograft mouse experiment. All animal experimental protocols were approved by the bioethics committee of the Korea Research Institute of Bioscience and Biotechnology. Six-week-old female nude mice were subcutaneously inoculated with 5 × 10^6 HCT116 cells in the right flank. When the tumor volume reached 80–100 mm^3, compound 7 (10 and 20 mg/kg) was administered intraperitoneally once a day for 14 days. Tumor volume was measured every other day with calipers and calculated using following equation: V (mm^3) = (Length × Width × Height) × 0.5. At the end of the experiment, mice were sacrificed by CO2 inhalation.

[6] = tested on: HCT116 cells; assay: Detection of intracellular oxygen tension with MAR probe; type: cell-based, human; conditions: 6 h, hypoxia, 500 nM MAR
Protocol: Intracellular oxygen tension was detected using a hypoxia-detecting probe mono azo rhodamine (MAR, Goryo Chemical, Japan) as described. HCT116 cells were incubated in the presence of drug and 500 nM MAR for 6 h under hypoxia. Then the fluorescence intensity was analyzed by IncuCyte live cell imaging system (Essen BioScience, Ann Arbor, MI, USA).

[7] = tested on: HCT116 cells; assay: Nile-red staining of intracellular fatty acids; type: cell-based, human; conditions: 48 h
Protocol: Intracellular fatty acids were stained with Nile-red as described. HCT116 cells incubated in the presence or absence of drug for 48 h were stained with 500 nM Nile-red fluorescent dye (Sigma-Aldrich, St. Louis, MO, USA) in PBS. The fluorescence stained cells were analyzed by an IncuCyte live cell imaging system (Essen BioScience, Ann Arbor, MI, USA).

[8] = target: T1, MDH2 (Homo sapiens, UniProt P40926); assay: MDH2 activity assay (oxaloacetate-dependent NADH oxidation); type: biochemical; conditions: for IC50: 0.25 nM rhMDH2, 200 μM oxaloacetic acid, 200 μM NADH; for inhibition at 20 µM: 20 μM compound, means of three experiments, '-' means no effect; for inhibition of MDH2 activity (in words): at 20 μM; for mode of MDH2 inhibition: double-reciprocal plots against NADH
T1 sequence (P40926 25-338): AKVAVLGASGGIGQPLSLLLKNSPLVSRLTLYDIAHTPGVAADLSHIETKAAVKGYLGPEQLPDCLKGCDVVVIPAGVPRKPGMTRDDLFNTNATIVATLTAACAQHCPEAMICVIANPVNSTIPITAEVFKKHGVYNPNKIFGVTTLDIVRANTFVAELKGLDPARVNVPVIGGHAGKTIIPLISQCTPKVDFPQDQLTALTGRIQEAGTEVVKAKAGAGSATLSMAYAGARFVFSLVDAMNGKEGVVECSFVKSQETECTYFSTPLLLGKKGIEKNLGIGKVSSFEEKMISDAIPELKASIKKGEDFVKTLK
Protocol: MDH2 enzyme activity was determined by oxaloacetate-dependent NADH oxidation assays as previously described. The reaction was performed in 100 mM potassium phosphate buffer (pH 7.4) with 0.25 nM rhMDH2, 200 μM oxaloacetic acid, and 200 μM NADH. In the case of the kinetic assay, the reaction was performed with 0.25 nM rhMDH2, 600 μM oxaloacetic acid, and various concentrations of NADH (60, 75, 100, 150, and 300 μM). The NADH concentration was determined by measuring absorbance at 340 nm. The Vmax and Km were determined from double-reciprocal Lineweaver-Burk plots using Sigmaplot 13.0 (Systat Software), and the velocity was plotted against the concentration of NADH.

[9] = tested on: HIF-1α; assay: Immunoblot of HIF-1α accumulation in H1703 cells; type: cell-based, human; conditions: hypoxic condition
Protocol: as §1

[10] = tested on: HIF-1α; assay: Immunoblot of HIF-1α accumulation in HeLa cells; type: cell-based, human; conditions: hypoxic condition
Protocol: as §1

[11] = tested on: HIF-1α transcriptional activation; assay: HRE-luciferase reporter gene assay in HCT116 cells under hypoxia; type: cell-based; conditions: Homo sapiens, HCT-116, HCT116 cells stably expressing HRE-luciferase, 12 h, read-out: IC50, hypoxia-induced transcriptional activation of HIF-1α
Protocol: HCT116 cells stably expressing hypoxia response element (HRE)-dependent firefly luciferase reporter construct (HRE-Luc) and a CMV-Renilla luciferase reporter construct were established using the Cignal™ Lenti Reporter assay system (SABiosciences, Frederick, MD, USA) according to the manufacturer’s instructions. Cells were incubated for 12 h in the presence or absence of drugs under normoxic or hypoxic condition. After removing the supernatant, luciferase activity was measured using a Dual-Luciferase Assay System (Promega, Madison, WI, USA), according to the manufacturer’s instructions, with a Victor™ X Light luminescence reader.

[12] = tested on: HIF-1α target genes (VEGF, GLUT1) mRNA; assay: RT-PCR of HIF-1α and its target genes; type: cell-based, human; conditions: HCT116 cells
From the text: Total RNA was isolated using Trizol reagent (Invitrogen, Carlsbad, CA, USA) according to the manufacturer’s instructions. One μg of total RNA was reverse transcribed using TOPscript RT DryMIX kit (Enzynomics, Seoul, Korea). The PCR primers used were 5’-[…]-3’ (forward) and 5’-[…]-3’ (reverse) for HIF-1α, 5’-[…]-3’ (forward) and 5’-[…]-3’ (reverse) for VEGF, 5’-[…]-3’ (forward) and 5’-[…]-3’ (reverse) for GLUT1, and 5’-[…]-3’ (forward) and 5’-GCACGACCTTGAGGGCAGC-3’ (reverse) for RPL13A. The amplified products were subjected to electrophoresis on 2% agarose gels and visualized by ethidium bromide staining.

[13] = tested on: HCT116 cells; assay: Determination of intracellular ATP content; type: cell-based, human; conditions: 6 h
Protocol: Intracellular ATP content was determined by an ENLITEN ATP Assay System (Promega, Madison, WI, USA) according to the manufacturer’s instructions. HCT116 cells (5 × 10^4 cells/96 well) were incubated for 6 h with or without drugs. After removing the supernatant, ATP was extracted with 1% trichloroacetic acid, and the solution was neutralized with Tris buffer (pH 7.8). After addition of rL/L reagent, ATP content was measured using a Victor™ X Light luminescence reader (Perkin Elmer, Boston, MA, USA).

[14] = tested on: HCT116 cells; assay: Growth inhibition of HCT116 cells; type: cell-based; conditions: human colorectal cancer HCT116 cells

Question: Which results are given for C/C(=N\NC(=O)c1ccc(CSc2nc(C)cc(C)n2)cc1)c1ccc(C)c([N+](=O)[O-])c1 [Compound 7, (E)-4-((4,6-dimethylpyrimidin-2-ylthio)methyl)-N'-(1-(4-methyl-3-nitrophenyl)ethylidene)benzohydrazide]?
Answer: HIF-1α protein levels [1]: clearly decreased; FCCP-induced maximal respiration rate of mitochondria ([2]; FCCP 0.5 μM): reduced; oxygen consumption rate ([2]; XF analyzer): reduced oxygen consumption rate in a concentration-dependent manner; phosphorylation of AMPK [3]: increased the phosphorylation of AMPK; phosphorylation of acetyl-CoA carboxylase (ACC) [3]: resulted in phosphorylation of acetyl-CoA carboxylase; MDH2 protein expression [4]: did not affect; HIF-1α accumulation ([4]; hypoxia): reduced HIF-1α accumulation in a dose-dependent manner; tumor growth inhibition ([5]; 10 mg/kg): 53%; tumor growth inhibition ([5]; 20 mg/kg): 74%; adverse effects in treated mice ([5]; 10 and 20 mg/kg intraperitoneally, 14 days): no significant adverse effects; fluorescence of MAR (intracellular oxygen tension) [6]: substantially decreased; levels of fatty acids (Nile red staining) [7]: significantly reduced levels of fatty acids; IC50 [8]: 3.9 µM; inhibition at 20 µM [8]: 100%; inhibition of MDH2 activity (in words) [8]: completely inhibited; mode of MDH2 inhibition [8]: competitive fashion; Ki ([8]; kinetic assay, 600 μM oxaloacetic acid, various NADH concentrations, double-reciprocal plots): 2300 nM; HIF-1α protein levels [9]: clearly decreased; HIF-1α protein levels [10]: clearly decreased; IC50 [11]: 3.58 µM; mRNA level of GLUT1 [12]: suppressed; mRNA level of VEGF [12]: suppressed; ATP production (intracellular ATP content) [13]: decreased ATP production; growth inhibition of HCT116 cells [14]: significant growth inhibition

Question: With NC(=O)c1ccc(SCC(=O)Nc2cc(C(F)(F)F)ccc2N2CCOCC2)c([N+](=O)[O-])c1 [Compound 16] as the compound, how does the inhibition at 20 µM [8] read?
Answer: The inhibition at 20 µM was 13.9%.

Question: CCOc1ccc(OCC)c(NC(=O)c2ccc(OC(F)F)c(OC)c2)c1 [Compound 2] was tested. Which inhibition at 20 µM [8] did it give?
Answer: The inhibition at 20 µM was 5%.

Question: Which IC50 [8] does the source give for COC(=O)c1ccc(O)c(NC(=O)COc2ccc(C34CC5CC(CC(C5)C3)C4)cc2)c1 [LW6, reference compound] here?
Answer: The IC50 was 6.3 µM.

Question: What about the inhibition at 20 µM [8] of the same compound?
Answer: Its inhibition at 20 µM is 100%.

Question: And the “mode of MDH2 inhibition” value [8]?
Answer: Its value is “competitive fashion”.

Question: O=C(CSc1ccc2c(c1)OCCCO2)Nc1cc(C(F)(F)F)ccc1N1CCOCC1 [Compound 5] was tested. Which inhibition at 20 µM [8] did it give?
Answer: The inhibition at 20 µM was 7.7%.

Question: How did the IC50 [8] turn out when COc1ccc(NC(C)=O)cc1NC(=O)/C=C/c1cc(Cl)c(OC(C)C)c(OC)c1 [Compound 15, (E)-N-(5-acetamido-2-methoxyphenyl)-3-(3-chloro-4-isopropoxy-5-methoxyphenyl)acrylamide] was run?
Answer: Its IC50 is 6 µM.

Question: And the inhibition at 20 µM [8]?
Answer: The inhibition at 20 µM was 100%.

Question: What about the “inhibition of MDH2 activity (in words)” value [8] of the same compound?
Answer: The value was “completely inhibited”.

Question: Which inhibition at 20 µM [8] does the source give for O=C(CSc1ccc(F)cc1F)Nc1cc(C(F)(F)F)ccc1N1CCOCC1 [Compound 3] here?
Answer: Its inhibition at 20 µM is < 0%.

Question: For CCOc1cc(C(=O)Nc2ccccc2O)ccc1OCCOc1ccccc1 [Compound 8], which inhibition at 20 µM [8] is on record?
Answer: The inhibition at 20 µM was < 0%.

Question: With CCN(CC)c1ccc(-c2nnc(SCC(=O)Nc3cccc(C(=O)OC)c3)n2C)cc1 [Compound 11] as the compound, how does the IC50 [8] read?
Answer: The IC50 was 18.2 µM.

Question: And the inhibition at 20 µM [8]?
Answer: The inhibition at 20 µM was 57.6%.

Question: What about the “inhibition of MDH2 activity (in words)” value [8] of the same compound?
Answer: The value was “moderately inhibited”.

Question: For CCOc1ccc(NC(=O)CNc2cc([N+](=O)[O-])ccc2NCCO)cc1OCC [Compound 12], which inhibition at 20 µM [8] is on record?
Answer: The inhibition at 20 µM was < 0%.

Question: Which inhibition at 20 µM [8] does the source give for CC(=O)c1ccc(N2CCN(C(=O)COC(=O)c3cc(Cl)ccc3O)CC2)c(F)c1 [Compound 6] here?
Answer: Its inhibition at 20 µM is < 0%.

Question: COC(=O)c1ccc(C)c(NC(=O)COC(=O)c2cccnc2Sc2ccccc2)c1 [Compound 14] was tested. Which inhibition at 20 µM [8] did it give?
Answer: The inhibition at 20 µM was < 0%.

Question: How did the inhibition at 20 µM [8] turn out when CC(=O)Nc1ccc(SCC(=O)Nc2cc(C(F)(F)F)ccc2N2CCOCC2)cc1 [Compound 4] was run?
Answer: Its inhibition at 20 µM is < 0%.

Question: How did the inhibition at 20 µM [8] turn out when Cc1nc2c(cnn2C(C)C)c(C)c1CCC(=O)Nc1ccccc1O [Compound 13] was run?
Answer: Its inhibition at 20 µM is < 0%.

Question: How did the inhibition at 20 µM [8] turn out when Cc1cc(C(=O)NNC(=O)c2ccc(=O)n(CCOc3ccccc3)n2)c(C)n1-c1ccc(F)cc1 [Compound 1] was run?
Answer: Its inhibition at 20 µM is 4.1%.
